The subject of assay [1] is Pyricularia oryzae. Format: in vivo. The note with it: rice seedlings, direct therapeutic foliar spray, 600 ppm, 4-5 days.
The test system of assay [2] is Leptosphaeria nodorum. Description: Activity against wheat leafspot (LN). Format: in vivo. The note with it: direct therapeutic foliar spray, 600 ppm, 6-8 days. The protocol: (d) Activity against wheat leafspot (Leptosphaeria nodorum; LN.) The test is a direct therapeutic foliar spray. Leaves of wheat plants (cv Norman), at the single leaf stage, are inoculated by spraying with an aqueous suspension containing 1.5×10^6 conidia/ml. The inoculated plants are kept for 24 hours in a high humidity compartment prior to treatment. The plants are sprayed with a solution of the test compound at a dosage of 600 ppm using an automated sprayline as described under (a). After drying, the plants are kept for 6-8 days at 22° C. and moderate humidity (70%). Assessment is based on the density of lesions per leaf compared with that on leaves of control plants. The extent of disease control in all the above tests is expressed as a rating compared with either an untreated control or a diluent-sprayed-control, according to the criteria: […]

Assay [3] concerns Plasmopara viticola. Kind of assay: Antisporulant activity against vine downy mildew (PVA). Type of assay: in vivo. The note with it: vine leaves, antisporulant foliar spray, 600 ppm, 750 l/ha. The protocol:
(a) Antisporulant activity against vine downy mildew (Plasmopara viticola; PVA) The test is a direct antisporulant one using a foliar spray. The lower surfaces of leaves of whole vine plants (cv Cabernet Sauvignon), approximately 8 cm high, are inoculated by spraying with an aqueous suspension containing 5×10^4 zoosporangia/ml. The inoculated plants are kept for 24 hours at 21° C. in a high humidity compartment, then 24 hours at glasshouse ambient temperature and humidity. Infected leaves are sprayed on their lower surfaces with a solution of active material in 1:1 water/acetone containing 0.04% "TWEEN 20" (Trade Mark; a polyoxyethylene sorbitan ester surfactant). Plants are treated using an automated sprayline with an atomising nozzle. The concentration of the compound is 600 ppm, and the spray volume is 750 l/ha. After spraying, the plants are returned to normal glasshouse conditions for 96 hours and are then transferred to the high humidity compartment for 24 hours to induce sporulation. Assessment is based on the percentage of the leaf area covered by sporulation compared with that on control leaves. The extent of disease control in all the above tests is expressed as a rating compared with either an untreated control or a diluent-sprayed-control, according to the criteria: […]

Assay [4] has as its system Rhizoctonia solani. Kind of assay: Activity against Rhizoctonia in-vitro (RSI). Particulars: 10 ppm, 10 days, 20° C., mycelial growth. Type of assay: cell-based. The protocol: (i) Activity against Rhizoctonia in-vitro (Rhizoctonia solani: RSI) This test measures the in-vitro activity of compounds against R. solani that causes stem and root rots. The test compound in acetone is added into 4 ml aliquots of half strength Potato Dextrose Broth dispensed in 25-compartment petri dishes to give final concentrations of 10 ppm. The fungal inoculum consists of mycelial fragments of R. solani growth in half strength PDB in shaken culture flasks and added to the broth to provide 5×10^4 fragments/ml broth. Petri dishes are incubated at 20° C. for 10 days until the assessment of mycelial growth. The extent of disease control in all the above tests is expressed as a rating compared with either an untreated control or a diluent-sprayed-control, according to the criteria: […]

Assay [5] relates to Alternaria solani. Description: Activity against tomato early blight (AS). Format: in vivo. Particulars: Table VI; tomato seedlings, contact prophylactic foliar spray, 4 days. The protocol: b) Activity against tomato early blight (Alternaria solani; AS) This test measures the contact prophylactic activity of test compounds applied as a foliar spray. Tomato seedlings (cv Outdoor Girl) are grown to the stage at which the second true leaf is expanded. The plants are treated using an automated sprayline as described under (a). Test compounds are applied as solutions or suspensions in a mixture of acetone and water (50:50 v/v) containing 0.04% surfactant ("TWEEN 20"--Trade Mark). After drying the plants are kept for 24 hours in a glasshouse at 20° C. and 40% R.H., followed by inoculation of the leaf upper surfaces with a suspension of A. solani conidia containing 10^4 spores/ml. For 4 days after inoculation plants are kept moist in a humidity compartment at 21° C. Disease is assessed 4 days after inoculation, based on the percentage of leaf surface area covered by lesions when compared with control plants. The extent of disease control in all the above tests is expressed as a rating compared with either an untreated control or a diluent-sprayed-control, according to the criteria: […]

Assay [6] concerns Erysiphe graminis f.sp. hordei. Description: Activity against barley powdery mildew, direct therapeutic (EGT). Type of assay: in vivo. Particulars: direct therapeutic foliar spray, 600 ppm, up to 7 days. As to the method:
(e) Activity against barley powdery mildew (Erysiphe graminis f.sp. hordei; EGT) The test is a direct therapeutic foliar spray. Leaves of barley seedlings, (cv. Golden Promise) at the single leaf stage are inoculated by dusting with mildew conidia one day prior to treatment with the test compound. The inoculated plants are kept overnight at glasshouse ambient temperature (18° C.) and humidity (40%) prior to treatment. The plants are sprayed with the test compound at a dosage of 600 ppm using an automated sprayline as described under (a). After drying, plants are returned to a compartment at 18° C. and 40% humidity for up to 7 days. Assessment is based on the percentage of leaf area covered by sporulation compared with that on leaves of control plants. The extent of disease control in all the above tests is expressed as a rating compared with either an untreated control or a diluent-sprayed-control, according to the criteria: […]

Assay [7] deals with Botrytis cinerea. Description: Direct protectant activity against broad bean grey mould (BCB). Format: in vivo. The note with it: direct protectant foliar spray, 600 ppm, 4 days. As to the method: (c) Direct protectant activity against broad bean grey mould (Botrytis cinerea; BCB) The test is a direct protectant foliar spray. The upper surfaces of leaves of broad bean plants with two leaf pairs (cv The Sutton) are sprayed with the test compound at a dosage of 600 ppm using an automated sprayline as described under (a). 24 hours after spraying the leaves are inoculated with an aqueous suspension containing 10^6 conidia/ml. For 4 days after inoculation plants are kept in a high humidity compartment at 22° C. Disease is assessed 4 days after inoculation, based on the percentage of leaf surface area covered by lesions. The extent of disease control in all the above tests is expressed as a rating compared with either an untreated control or a diluent-sprayed-control, according to the criteria: […]

Assay [8] relates to Phytophthora infestans. Type of assay: in vivo. The note with it: tomato, direct protectant foliar spray.
Assay [9] has as its system Venturia inaequalis. Kind of assay: Activity against apple scab in-vitro (VII). Type of assay: cell-based. Particulars: 10 ppm, 10 days, 20° C., mycelial growth. The protocol:
(j) Activity against apple scab in-vitro (Venturia inaequalis: VII) This test measures the in-vitro activity of compounds against V. inaequalis that causes apple scab. The test compound in acetone is added into 4 ml aliquots of half strength Potato Dextrose Broth dispensed in 25-compartment petri dishes to give final concentrations of 10 ppm. The fungal inoculum consists of mycelial fragments and spores of V. inaequalis grown on malt agar and added to the broth to provide 5×10^4 propagules/ml broth. Petri dishes are incubated at 20° C. for 10 days until the assessment of mycelial growth. The extent of disease control in all the above tests is expressed as a rating compared with either an untreated control or a diluent-sprayed-control, according to the criteria: […]

Assay [10] has as its system Pseudocercosporella herpotrichoides. Kind of assay: Activity against wheat eyespot in-vitro (PHI). Format: cell-based. The note with it: 10 ppm, 10 days, 20° C., mycelial growth. The protocol:
(h) Activity against wheat eyespot in-vitro (Pseudocercosporella herpotrichoides; pHI) This test measures the in vitro activity of compounds against the fungus causing wheat eyespot. The test compound is dissolved or suspended in acetone and is added into 4 ml aliquots of half strength Potato Dextrose Broth (PDB) dispended in 25-compartment petri dishes to give a final concentration of 10ppm. The fungal inoculum consists of mycelial fragments of P. herpotrichoides grown in half strength PDB in shaken flasks and added to the broth to provide 5×10^4 fragments/ml broth. Petri dishes are incubated at 20° C. for 10 days until the assessment of mycelial growth. The extent of disease control in all the above tests is expressed as a rating compared with either an untreated control or a diluent-sprayed-control, according to the criteria: […]

Assay [11] concerns Erysiphe graminis f.sp. hordei. Kind of assay: Direct protectant activity against barley powdery mildew (EGP). Particulars: direct protectant foliar spray, 8 days. Format: in vivo. As to the method: (f) Direct protectant activity against barley powdery mildew (Erysiphe graminis f.sp. hordei; EGP) The test is a direct protectant foliar spray. Leaves of barley seedlings (cv Golden Promise) at the single leaf stage are sprayed with the test compound as described under (a). After drying, the plants are kept for 24 hours in a glasshouse at 18° C. and 40% R.H. Then the plants are inoculated by dusting with mildew conidia and kept at 18° C. and 40% R.H. for 8 days. Assessment is based on the percentage of leaf area covered by sporulation compared with that on leaves of control plants. The extent of disease control in all the above tests is expressed as a rating compared with either an untreated control or a diluent-sprayed-control, according to the criteria: […]

As for `CC(C)(C)C1CCC2(CC1)CC(NCc1ccc(Cl)cc1)CO2` (centres unmarked) [Compound 1], the “disease control rating PO” value in assay [1] is 0 (less than 50% disease control). Besides, the “disease control rating LN” value in assay [2] is reported as 0 (less than 50% disease control). In assay [3], the “disease control rating PVA” value was 0 (less than 50% disease control). In addition, the “disease control rating RSI” value in [4] is on record as 0 (less than 50% disease control). Further, the “disease control rating AS” value in assay [5] is 0 (less than 50% disease control). Further, the “disease control rating EGT” value in [6] is reported as 2 (greater than 80% disease control). For the same molecule, in [7], the “disease control rating BCB” value is given as 0 (less than 50% disease control). For the same molecule, the “disease control rating PIP” value in assay [8] is 0 (less than 50% disease control). Moreover, the “disease control rating VII” value in [9] is 0 (less than 50% disease control). In assay [10], the “disease control rating PHI” value was 1 (about 50-80% disease control).
With `CCCCCCNC1COC2(CCC(C(C)(C)C)CC2)C1` (centres unmarked) [Compound 2], the “disease control rating PO” value in assay [1] is recorded as 0 (less than 50% disease control). In addition, the “disease control rating LN” value in assay [2] was 0 (less than 50% disease control). Besides, the “disease control rating PVA” value in assay [3] was 0 (less than 50% disease control). Further, the “disease control rating RSI” value in [4] is reported as 1 (about 50-80% disease control). Further, the “disease control rating AS” value in assay [5] is given as 0 (less than 50% disease control). The “disease control rating EGT” value in assay [6] is 2 (greater than 80% disease control). Moreover, the “disease control rating BCB” value in assay [7] is 0 (less than 50% disease control). The “disease control rating PIP” value in assay [8] is 0 (less than 50% disease control). Moreover, in [9], the “disease control rating VII” value is on record as 0 (less than 50% disease control). The “disease control rating PHI” value in [10] is listed as 1 (about 50-80% disease control).
On to `CC1CN(C2COC3(CCC(C(C)(C)C)CC3)C2)CC(C)O1` (centres unmarked) [Compound 3], for which the “disease control rating PO” value in assay [1] is 0 (less than 50% disease control). In assay [2], the “disease control rating LN” value was 0 (less than 50% disease control). For the same molecule, in assay [3], the “disease control rating PVA” value is given as 0 (less than 50% disease control). In assay [4], the “disease control rating RSI” value is listed as 0 (less than 50% disease control). Moreover, in assay [5], the “disease control rating AS” value is given as 0 (less than 50% disease control). Further, the “disease control rating EGT” value in [6] was 1 (about 50-80% disease control). In [7], the “disease control rating BCB” value was 0 (less than 50% disease control). Moreover, in assay [8], the “disease control rating PIP” value is recorded as 0 (less than 50% disease control). For the same molecule, the “disease control rating VII” value in assay [9] is on record as 2 (greater than 80% disease control). Moreover, the “disease control rating PHI” value in [10] is 2 (greater than 80% disease control).
Take `CC1CCN(C2COC3(CCC(C(C)(C)CC(C)(C)C)CC3)C2)CC1` (centres unmarked) [Compound 135]: the “disease control rating PO” value in assay [1] is recorded as 0 (less than 50% disease control). Besides, the “disease control rating LN” value in assay [2] is on record as 1 (about 50-80% disease control). Moreover, in assay [3], the “disease control rating PVA” value is 0 (less than 50% disease control). The “disease control rating RSI” value in [4] is recorded as 2 (greater than 80% disease control). In assay [5], the “disease control rating AS” value was 0 (less than 50% disease control). Moreover, the “disease control rating EGT” value in assay [6] is 2 (greater than 80% disease control). Also, the “disease control rating BCB” value in assay [7] is on record as 0 (less than 50% disease control). In assay [11], the “disease control rating EGP” value is recorded as 2 (greater than 80% disease control). For the same molecule, the “disease control rating VII” value in assay [9] is reported as 1 (about 50-80% disease control). In addition, the “disease control rating PHI” value in [10] is reported as 2 (greater than 80% disease control).
For `CC1CC(C)CN(C2COC3(CCC(C(C)(C)CC(C)(C)C)CC3)C2)C1` (centres unmarked) [Compound 136], the “disease control rating PO” value in assay [1] is given as 0 (less than 50% disease control). Moreover, the “disease control rating LN” value in assay [2] was 0 (less than 50% disease control). The “disease control rating PVA” value in assay [3] is recorded as 0 (less than 50% disease control). For the same molecule, the “disease control rating RSI” value in assay [4] was 2 (greater than 80% disease control). For the same molecule, the “disease control rating AS” value in [5] was 0 (less than 50% disease control). In assay [6], the “disease control rating EGT” value is 2 (greater than 80% disease control). The “disease control rating BCB” value in [7] is 0 (less than 50% disease control). For the same molecule, the “disease control rating EGP” value in assay [11] was 2 (greater than 80% disease control). Moreover, the “disease control rating VII” value in assay [9] is listed as 0 (less than 50% disease control). In assay [10], the “disease control rating PHI” value is on record as 2 (greater than 80% disease control).

Source of the values: patent US5591741A, “Fungicidal spiroheterocyclic derivatives” (American Cyanamid Company, priority 1993, dated 1997).
